What was measured:
[1] = biological target: Prostaglandin E2 receptor EP2 subtype (Homo sapiens, UniProt P43116); assay: (§1) FLIPR Assay: Cells were seeded at a density of 5×10^4 cells per well in Biocoat® Poly-D-lysine-coated black-wall, clear-bottom 96-well plates (Becton-Dickinson) and allowed to attach overnight in an incubator at 37° C. Cells were then washed two times with HBSS-HEPES buffer (Hanks Balanced Salt Solution without bicarbonate and phenol red, 20 mM HEPES, pH 7.4) using a Denley Cellwash plate washer (Labsystems). After 45 minutes of dye-loading in the dark, using the calcium-sensitive dye Fluo-4 AM at a final concentration of […], plates were washed four times with HBSS-HEPES buffer to remove excess dye leaving […] in each well. Plates were re-equilibrated to 37° C. for a few minutes.Cells were excited with an Argon laser at 488 nm, and emission was measured through a 510-570 nm bandwidth emission filter (FLIPR™, Molecular Devices, Sunnyvale, Calif.). Drug solution was added in a 50 μl volume to each well to give the desired final concentration. The peak increase in fluorescence intensity was recorded for each well. On each plate, four wells each served as negative (HBSS-HEPES buffer) and positive controls (standard agonists: BW245C (hDP); PGE2 (hEP1; hEP2/Gqs5; hEP3A/Gqi5; hEP4/Gqs5); PGF2a (hFP); carbacyclin (hIP); U-46619 (hTP), depending on receptor). The peak fluorescence change in each drug-containing well was then expressed relative to the controls.
Sequence of Prostaglandin E2 receptor EP2 subtype (P43116 whole entry): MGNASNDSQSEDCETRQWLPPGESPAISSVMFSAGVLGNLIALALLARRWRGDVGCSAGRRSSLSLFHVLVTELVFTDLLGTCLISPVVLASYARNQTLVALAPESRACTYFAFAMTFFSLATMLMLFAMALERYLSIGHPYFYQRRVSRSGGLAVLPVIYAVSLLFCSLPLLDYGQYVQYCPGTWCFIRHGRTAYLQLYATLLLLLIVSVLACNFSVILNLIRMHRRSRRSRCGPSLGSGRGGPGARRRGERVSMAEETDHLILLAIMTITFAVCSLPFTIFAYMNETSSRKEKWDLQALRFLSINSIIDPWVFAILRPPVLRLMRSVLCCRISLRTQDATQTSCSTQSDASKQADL

[2] = biological target: T1, Prostaglandin E2 receptor EP4 subtype (Homo sapiens, UniProt P35408); assay: as §1
T1 sequence (P35408 whole entry): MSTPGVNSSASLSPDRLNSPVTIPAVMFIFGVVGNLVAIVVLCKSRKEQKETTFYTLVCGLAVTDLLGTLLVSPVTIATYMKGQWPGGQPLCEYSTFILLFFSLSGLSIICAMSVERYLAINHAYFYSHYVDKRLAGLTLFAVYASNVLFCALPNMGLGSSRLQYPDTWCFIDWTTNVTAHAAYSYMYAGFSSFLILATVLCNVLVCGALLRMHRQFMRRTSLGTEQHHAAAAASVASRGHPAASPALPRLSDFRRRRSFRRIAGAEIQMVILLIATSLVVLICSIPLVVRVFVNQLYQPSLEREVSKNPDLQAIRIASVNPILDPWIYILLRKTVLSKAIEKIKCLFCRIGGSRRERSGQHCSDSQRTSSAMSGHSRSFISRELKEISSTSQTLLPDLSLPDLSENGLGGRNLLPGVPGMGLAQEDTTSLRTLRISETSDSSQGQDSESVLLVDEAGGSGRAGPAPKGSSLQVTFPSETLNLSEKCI

[3] = biological target: T1, Prostaglandin E2 receptor EP4 subtype; assay: Radioligand Binding Assay: HEK-293 cells stably expressing the human or feline FP receptor, or EP1, EP2, or EP4 receptors were washed with TME buffer, scraped from the bottom of the flasks, and homogenized for 30 sec using a Brinkman PT 10/35 polytron. TME buffer was added to achieve a final 40 ml volume in the centrifuge tubes (the composition of TME is 100 mM TRIS base, 20 mM MgCl2, […]; 10N HCl is added to achieve a pH of 7.4).The cell homogenate was centrifuged at 19000 r.p.m. for 20 min at 4° C. using a Beckman Ti-60 rotor. The resultant pellet was resuspended in TME buffer to give a final 1 mg/ml protein concentration, as determined by Biorad assay. Radioligand binding competition assays vs. [3H-]17-phenyl PGF2a (5 nM) were performed in a 100 μl volume for 60 min. Binding reactions were started by adding plasma membrane fraction. The reaction was terminated by the addition of 4 ml ice-cold TRIS-HCl buffer and rapid filtration through glass fiber GF/B filters using a Brandel cell harvester. The filters were washed 3 times with ice-cold buffer and oven dried for one hour.[3H] PGE2 (specific activity 180 Ci mmol) was used as the radioligand for EP receptors. [3H] 17-phenyl PGF2a was employed for FP receptor binding studies. Binding studies employing EP1, EP2, EP4 and FP receptors were performed in duplicate in at least three separate experiments. A 200 μl assay volume was used. […]

| EC50 [1] | Ki [1] | Ki [2] | EC50 [2] | Ki [3] | Structure (SMILES) |
| --- | --- | --- | --- | --- | --- |
| 183 nM | 821 nM | 4860 nM | – | – | COc1cc(OC)cc(C(=O)N2CCc3cccc(CCc4ccc(C(=O)O)cc4)c32)c1 |
| – | 14 nM | 2 nM | 2 nM | – | COc1cc(CN2CCc3cc(F)cc(CCc4ccc(C(=O)O)cc4)c32)cc(OC)c1 |
| – | 23 nM | 123 nM | 178 nM | – | COc1cccc(CN2CCc3cccc(CCc4ccc(C(=O)O)cc4)c32)c1 |
| – | 6880 nM | 9560 nM | > 10000 nM | – | COc1cccc(CN2Cc3cccc(CCc4ccc(C(=O)O)cc4)c3C2)c1 |
| – | – | – | > 10000 nM | – | COc1cc(CO)cc(S(=O)(=O)N2CCc3cccc(CCc4ccc(C(=O)O)cc4)c32)c1 |
| – | 259 nM | 1680 nM | 1620 nM | – | COc1cccc(Cn2ccc3cccc(CCc4ccc(C(=O)O)cc4)c32)c1 |
| 29 nM | 14 nM | 616 nM | 450 nM | – | O=C(O)c1ccc(CCc2cccc3c2N(Cc2ccc(F)cc2)CC3)cc1 |
| 11 nM | 0.3 nM | 1200 nM | – | – | O=C(O)c1ccc(CCc2cccc3c2N(Cc2cc(C(F)(F)F)cc(C(F)(F)F)c2)CC3)cc1 |
| 15 nM | 7 nM | 424 nM | 187 nM | – | O=C(O)c1ccc(CCc2cccc3c2N(Cc2cccc(C(F)(F)F)c2)CC3)cc1 |
| – | – | – | – | 154 nM | COc1cc(CO)cc(CN2CCc3cccc(CCc4ccc(C(=O)O)s4)c32)c1 |

The remaining lines, values behind:

| Structure (SMILES) | EC50 [1] | Ki [1] | Ki [2] | EC50 [2] | Ki [3] |
| --- | --- | --- | --- | --- | --- |
| O=C(O)c1ccc(CCc2cccc3c2N(CCc2ccccc2)CC3)cc1 | – | 202 nM | 1090 nM | 1580 nM | – |
| COc1cccc(CCN2CCc3cccc(CCc4ccc(C(=O)O)cc4)c32)c1 | – | 41 nM | 373 nM | 1260 nM | – |
| COc1cccc(S(=O)(=O)N2CCc3cccc(CCc4ccc(C(=O)O)cc4)c32)c1 | – | 571 nM | > 10000 nM | > 10000 nM | – |
| O=C(O)c1ccc(CCc2cccc3c2N(Cc2cc(F)cc(F)c2)CC3)cc1 | 12 nM | 12 nM | 412 nM | 205 nM | – |
| COc1cccc(CN2CCc3cccc(CCc4ccc(C(=O)O)s4)c32)c1 | – | 50 nM | 714 nM | – | – |
| COc1cccc(CC(=O)N2CCc3cccc(CCc4ccc(C(=O)O)cc4)c32)c1 | – | > 10000 nM | 449 nM | > 10000 nM | – |
| O=C(O)c1ccc(CCc2cccc3c2N(Cc2cccc(F)c2)CC3)cc1 | 35 nM | 38 nM | 897 nM | 123 nM | – |
| COc1cc(OC)cc(N2Cc3cccc(CCc4ccc(C(=O)O)cc4)c3C2)c1 | – | – | 3900 nM | – | – |
| COc1cccc(CCN2Cc3cccc(CCc4ccc(C(=O)O)cc4)c3C2)c1 | – | 1130 nM | > 10000 nM | > 10000 nM | – |

Source: ChEMBL document CHEMBL5725219, “Compounds and methods for skin repair” (2017)
